Test: Solubility test of compound in various solvents (20 mg in 10 g solvent, visually judged)
Format: physicochemical
Settings: 20 mg sample in 10 g solvent at room temperature (0.2% by mass)
Protocol: <Solubility Test of Compound>
In order to investigate applicability of the compound (e) obtained in the above Example 4 to a wet process, a solubility test of the compound in various solvents was conducted. In addition, a solubility test of anthracene was also conducted as Reference Example 2.
Specifically, 20 mg of a sample was weighed and it was visually judged whether it dissolves in 10 g of a solvent at room temperature (0.2% by mass).
In Table 3, “Yes” represents “soluble” and “No” represents “insoluble”.

Structure (SMILES) | Solubility in 1,2-Dichlorobenzene | Solubility in Chloroform | Solubility in Cyclohexane | Solubility in Hexane
c1ccc2cc3ccccc3cc2c1 [Anthracene, anthracene] | Yes (“Yes” represents “soluble”) | Yes (“Yes” represents “soluble”) | No (“No” represents “insoluble”) | No (“No” represents “insoluble”)
FC(F)(F)C(F)(F)C(F)(F)C(F)(F)C(F)(F)C(F)(F)c1c2ccccc2c(C(F)(F)C(F)(F)C(F)(F)C(F)(F)C(F)(F)C(F)(F)F)c2ccccc12 [Compound (e), 9,10-bis(perfluorohexyl)anthracene] | Yes (“Yes” represents “soluble”) | Yes (“Yes” represents “soluble”) | Yes (“Yes” represents “soluble”) | Yes (“Yes” represents “soluble”)
